Laboratory results published in BindingDB's records for doi:10.1016/j.bmcl.2003.07.008 (University of Lille, 2003).

Assay: Inhibition of 1-monooleoyl glycerol (MOG) induced beta-hematin formation

`CC(C)CN(CCCN1CCN(CCCNc2ccnc3cc(Cl)ccc23)CC1)CC(C)C` [7-chloro-N-(3-(4-(3-(diisobutylamino)propyl)piperazin-1-yl)propyl)quinolin-4-amine] and `CC(C)CN(CCCN1CCN(CCCNc2ccnc3ccccc23)CC1)CC(C)C` [{3-[4-(3-Diisobutylamino-propyl)-piperazin-1-yl]-propyl}-quinolin-4-yl-amine] are within 1.5-fold of each other in IC50: 43.4 µM for the first, 62.3 µM for the second.

First: CC(C)CN(CCCN1CCN(CCCNc2nc3ccccc3[nH]2)CC1)CC(C)C [(1H-Benzoimidazol-2-yl)-{3-[4-(3-diisobutylamino-propyl)-piperazin-1-yl]-propyl}-amine]
Second: CC(C)CN(CCCN1CCN(CCCNc2nc3ccccc3o2)CC1)CC(C)C [Benzooxazol-2-yl-{3-[4-(3-diisobutylamino-propyl)-piperazin-1-yl]-propyl}-amine]
The IC50 of the first is lower: 63.6 µM for the first, greater than 200 µM for the second. The first is the more potent here.

`CC(C)CN(CCCN1CCN(CCCNCc2ccncc2)CC1)CC(C)C` [Diisobutyl-[3-(4-{3-[(pyridin-4-ylmethyl)-amino]-propyl}-piperazin-1-yl)-propyl]-amine] and `CC(C)CN(CCCN1CCN(CCCNc2cnccn2)CC1)CC(C)C` [{3-[4-(3-Diisobutylamino-propyl)-piperazin-1-yl]-propyl}-pyrazin-2-yl-amine] cannot be ordered by IC50: greater than 200 µM for the first, greater than 200 µM for the second.
